According to patent EP4389751A1, “HETEROCYCLIC COMPOUNDS AND USES THEREOF” (Kumquat Biosciences Inc., priority 2021, dated 2024):

Columns and labels:
K-Ras G12S = target: T1, K-Ras G12S (Homo sapiens, UniProt P01116, G12S); experiment: HTRF assay of the K-Ras / SOS1 interaction; type: biochemical; conditions: IC50 (against K-Ras G12D) to IC50 (against K-Ras G12S)
T1 construct: made in house; host or cells: E. coli (e.g., BL21 (DE3))
How it was run: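 GST-K-Ras G12S with anti-GST-Eu donor and His-hSOS1 with anti-6His-XL665 acceptor in ~5 mM HEPES pH 7.4, ~150 mM NaCl, 1 mM DTT, 0.05% BSA, 0.0025% Igepal. Read after ~10 min or longer; IC50 from 665/620 nm ratio, duplicates at 10 µM down to 0.01 µM.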

[1] = target: T2, KRAS protein (His-tagged GDP-loaded G12S 1-169) (Homo sapiens, UniProt P01116, G12S); experiment: Covalent modification of KRAS protein, intact-protein LC-MS; type: binding; conditions: for % G12S Modification at 24 hr.: 24hrs at room temperature, KRAS protein ~2 µM
T2 construct: His-tagged GDP-loaded G12S 1-169
How it was run: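 His-tagged GDP-loaded KRAS 1-169 (~2 µM) incubated with compound 24 h at room temperature, then quenched with formic acid. Intact-protein LC-ESI-MS on C4 column; deconvoluted peak intensities of unmodified and adducted protein give percent covalent modification.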

SMILES	Ratio of IC50 KRAS G12D vs. IC50 KRAS G12S (K-Ras G12S)	% G12S Modification at 24 hr. [1]	K-Ras12S engagement after 24-hour treatment ([1]; 24-hour treatment, compound pairs differ only at R^6 (warhead))
N#Cc1c(N)sc2c(F)ccc(-c3c(Cl)cc4c(N5CCOC6(CN(C(=O)n7ccnn7)C6)C5)nc(OC[C@@]56CCCN5C[C@H](F)C6)nc4c3F)c12 [Compound A195, 4-(4-(2-(1H-1,2,3-triazole-1-carbonyl)-5-oxa-2,8-diazaspiro[3.5]nonan-8-yl)-6-chloro-8-fluoro-2-(((2R,7aS)-2-fluorotetrahydro-1H-pyrrolizin-7a(5H)-yl)methoxy)quinazolin-7-yl)-2-amino-7-fluorobenzo[b]thiophene-3-carbonitrile]	A (A: indicates that the ratio of IC50 against KrasG12D vs. IC50 against KrasG12S is 1-fold or greater)	+++ (+++ indicates greater than 20% labelling)	–
N#Cc1nccn1C(=O)N1C2CCC1CN(c1nc(OC[C@@]34CCCN3C[C@H](F)C4)nc3c(F)c(-c4ccc(F)c5sc(N)nc45)c(Cl)cc13)C2 [Compound A170, 1-(3-(7-(2-amino-7-fluorobenzo[d]thiazol-4-yl)-6-chloro-8-fluoro-2-(((2R,7aS)-2-fluorotetrahydro-1H-pyrrolizin-7a(5H)-yl)methoxy)quinazolin-4-yl)-3,8-diazabicyclo[3.2. 1]octane-8-carbonyl)-1H-imidazole-2-carbonitrile]	A (A: indicates that the ratio of IC50 against KrasG12D vs. IC50 against KrasG12S is 1-fold or greater)	++ (++ indicates between about 1%- 20% labelling)	–
CN(C)C1CN(c2nc(N3CCOC4(CN(C(=O)n5cncn5)C4)C3)c3cc(Cl)c(-c4ccc(F)c5sc(N)c(C#N)c45)c(F)c3n2)C1 [Compound A256, 4-(4-(2-(1H-1,2,4-triazole-1-carbonyl)-5-oxa-2,8-diazaspiro[3.5]nonan-8-yl)-6-chloro-2-(3-(dimethylamino)azetidin-1-yl)-8-fluoroquinazolin-7-yl)-2-amino-7-fluorobenzo[b]thiophene-3-carbonitrile]	A (A: indicates that the ratio of IC50 against KrasG12D vs. IC50 against KrasG12S is 1-fold or greater)	+++ (+++ indicates greater than 20% labelling)	–
N#Cc1c(N)sc2c(F)ccc(-c3c(Cl)cc4c(N5CC6(CCCCN(C(=O)n7cncn7)C6)C5)nc(OC[C@@]56CCCN5C[C@H](F)C6)nc4c3F)c12 [Compound A285, 4-(4-(6-(1H-1,2,4-triazole-1-carbonyl)-2,6-diazaspiro[3.6]decan-2-yl)-6-chloro-8-fluoro-2-(((2R,7aS)-2-fluorotetrahydro-1H-pyrrolizin-7a(5H)-yl)methoxy)quinazolin-7-yl)-2-amino-7-fluorobenzo[b]thiophene-3-carbonitrile]	A (A: indicates that the ratio of IC50 against KrasG12D vs. IC50 against KrasG12S is 1-fold or greater)	+++ (+++ indicates greater than 20% labelling)	–
Nc1nc2c(-c3c(Cl)cc4c(N5CCCN(C(=O)n6cncn6)CC5)nc(OC[C@@]56CCCN5C[C@H](F)C6)nc4c3F)ccc(F)c2s1 [Compound A191, (4-(7-(2-amino-7-fluorobenzo[d]thiazol-4-yl)-6-chloro-8-fluoro-2-(((2R,7aS)-2-fluorotetrahydro-1H-pyrrolizin-7a(5H)-yl)methoxy)quinazolin-4-yl)-1,4-diazepan-1-yl)(1H-1,2,4-triazol-1-yl)methanone]	A (A: indicates that the ratio of IC50 against KrasG12D vs. IC50 against KrasG12S is 1-fold or greater)	+++ (+++ indicates greater than 20% labelling)	–
N#Cc1ccn(C(=O)N2C3CCC2CN(c2nc(OC[C@@]45CCCN4C[C@H](F)C5)nc4c(F)c(-c5ccc(F)c6sc(N)c(C#N)c56)c(Cl)cc24)C3)n1 [Compound A224, 1-(3-(7-(2-amino-3-cyano-7-fluorobenzo[b]thiophen-4-yl)-6-chloro-8-fluoro-2-(((2R,7aS)-2-fluorotetrahydro-1H-pyrrolizin-7a(5H)-yl)methoxy)quinazolin-4-yl)-3,8-diazabicyclo[3.2. 1]octane-8-carbonyl)-1H-pyrazole-3-carbonitrile]	A (A: indicates that the ratio of IC50 against KrasG12D vs. IC50 against KrasG12S is 1-fold or greater)	++ (++ indicates between about 1%- 20% labelling)	–
Cc1nc(C)n(C(=O)N2CC3(COCCN(c4nc(OC[C@@]56CCCN5C[C@H](F)C6)nc5c(F)c(-c6ccc(F)c7sc(N)c(C#N)c67)c(Cl)cc45)C3)C2)n1 [Compound A185, 2-amino-4-(6-chloro-4-(2-(3,5-dimethyl-1H-1,2,4-triazole-1-carbonyl)-6-oxa-2,9-diazaspiro[3.6]decan-9-yl)-8-fluoro-2-(((2R,7aS)-2-fluorotetrahydro-1H-pyrrolizin-7a(5H)-yl)methoxy)quinazolin-7-yl)-7-fluorobenzo[b]thiophene-3-carbonitrile]	A (A: indicates that the ratio of IC50 against KrasG12D vs. IC50 against KrasG12S is 1-fold or greater)	++ (++ indicates between about 1%- 20% labelling)	–
COCCN1CCC(Oc2nc(N3CCCCC4(CN(C(=O)n5cncn5)C4)C3)c3cc(Cl)c(-c4ccc(F)c5sc(N)c(C#N)c45)c(F)c3n2)CC1 [Compound A119, 4-(4-(2-(1H-1,2,4-triazole-1-carbonyl)-2,6-diazaspiro[3.6]decan-6-yl)-6-chloro-8-fluoro-2-((1-(2-methoxyethyl)piperidin-4-yl)oxy)quinazolin-7-yl)-2-amino-7-fluorobenzo[b]thiophene-3-carbonitrile]	A (A: indicates that the ratio of IC50 against KrasG12D vs. IC50 against KrasG12S is 1-fold or greater)	+++ (+++ indicates greater than 20% labelling)	–
Cc1ncn(C(=O)N2CC3(C2)CN(c2nc(OC[C@@]45CCCN4C[C@H](F)C5)nc4c(F)c(-c5ccc(F)c6sc(N)c(C#N)c56)c(Cl)cc24)CCO3)n1 [Compound A148, 2-amino-4-(6-chloro-8-fluoro-2-(((2R,7aS)-2-fluorotetrahydro-1H-pyrrolizin-7 a(5H)-yl)methoxy)-4-(2-(3-methyl-1H-1,2,4-triazole-1-carbonyl)-5-oxa-2,8-diazaspiro[3.5]nonan-8-yl)quinazolin-7-yl)-7-fluorobenzo[b]thiophene-3-carbonitrile]	A (A: indicates that the ratio of IC50 against KrasG12D vs. IC50 against KrasG12S is 1-fold or greater)	+++ (+++ indicates greater than 20% labelling)	–
N#Cc1c(N)sc2c(F)ccc(-c3c(Cl)cc4c(OC5CCCCN(C(=O)n6cncn6)C5)nc(OC[C@@]56CCCN5C[C@H](F)C6)nc4c3F)c12 (stereo partly drawn) [Compound A258, 4-(4-((1-(1H-1,2,4-triazole-1-carbonyl)azepan-3-yl)oxy)-6-chloro-8-fluoro-2-(((2R,7aS)-2-fluorotetrahydro-1H-pyrrolizin-7a(5H)-yl)methoxy)quinazolin-7-yl)-2-amino-7-fluorobenzo[b]thiophene-3-carbonitrile]	A (A: indicates that the ratio of IC50 against KrasG12D vs. IC50 against KrasG12S is 1-fold or greater)	+++ (+++ indicates greater than 20% labelling)	–
CN1CCC[C@H]1COc1nc(N2CCOC3(CN(C(=O)n4cncn4)C3)C2)c2cc(Cl)c(-c3ccc(F)c4sc(N)c(C#N)c34)c(F)c2n1 [Compound A137, 4-(4-(2-(1H-1,2,4-triazole-1-carbonyl)-5-oxa-2,8-diazaspiro[3.5]nonan-8-yl)-6-chloro-8-fluoro-2-(((S)-1-methylpyrrolidin-2-yl)methoxy)quinazolin-7-yl)-2-amino-7-fluorobenzo[b]thiophene-3-carbonitrile]	A (A: indicates that the ratio of IC50 against KrasG12D vs. IC50 against KrasG12S is 1-fold or greater)	+++ (+++ indicates greater than 20% labelling)	–
Cc1ncn(C(=O)N2CC3(CCCN(c4nc(OC[C@@]56CCCN5C[C@H](F)C6)nc5c(F)c(-c6ccc(F)c7sc(N)c(C#N)c67)c(Cl)cc45)C3)C2)n1 [Compound A102, 2-amino-4-(6-chloro-8-fluoro-2-(((2R,7aS)-2-fluorotetrahydro-1H-pyrrolizin-7 a(5H)-yl)methoxy)-4-(2-(3-methyl-1H-1,2,4-triazole-1-carbonyl)-2,6-diazaspiro[3.5]nonan-6-yl)quinazolin-7-yl)-7-fluorobenzo[b]thiophene-3-carbonitrile]	A (A: indicates that the ratio of IC50 against KrasG12D vs. IC50 against KrasG12S is 1-fold or greater)	+++ (+++ indicates greater than 20% labelling)	–
N#Cc1cn(C(=O)N2C3CCC2CN(c2nc(OC[C@@]45CCCN4C[C@H](F)C5)nc4c(F)c(-c5ccc(F)c6sc(N)nc56)c(Cl)cc24)C3)cn1 [Compound A123, 1-(3-(7-(2-amino-7-fluorobenzo[d]thiazol-4-yl)-6-chloro-8-fluoro-2-(((2R,7aS)-2-fluorotetrahydro-1H-pyrrolizin-7a(5H)-yl)methoxy)quinazolin-4-yl)-3,8-diazabicyclo[3.2. 1]octane-8-carbonyl)-1H-imidazole-4-carbonitrile]	A (A: indicates that the ratio of IC50 against KrasG12D vs. IC50 against KrasG12S is 1-fold or greater)	++ (++ indicates between about 1%- 20% labelling)	++ (++: indicates between 1% to 20% labelling)
